{"source": "paper PMC10192158", "about": "(Cancer Chemotherapy and Pharmacology, 2023)", "key": {"VEGFR2 [1]": {"tested_on": "VEGFR2", "conditions": "cited from earlier work"}, "VEGFR2 [2]": {"biological_target": "T1, VEGFR2 (Homo sapiens, UniProt P35968)", "T1 sequence (P35968 790-1356)": "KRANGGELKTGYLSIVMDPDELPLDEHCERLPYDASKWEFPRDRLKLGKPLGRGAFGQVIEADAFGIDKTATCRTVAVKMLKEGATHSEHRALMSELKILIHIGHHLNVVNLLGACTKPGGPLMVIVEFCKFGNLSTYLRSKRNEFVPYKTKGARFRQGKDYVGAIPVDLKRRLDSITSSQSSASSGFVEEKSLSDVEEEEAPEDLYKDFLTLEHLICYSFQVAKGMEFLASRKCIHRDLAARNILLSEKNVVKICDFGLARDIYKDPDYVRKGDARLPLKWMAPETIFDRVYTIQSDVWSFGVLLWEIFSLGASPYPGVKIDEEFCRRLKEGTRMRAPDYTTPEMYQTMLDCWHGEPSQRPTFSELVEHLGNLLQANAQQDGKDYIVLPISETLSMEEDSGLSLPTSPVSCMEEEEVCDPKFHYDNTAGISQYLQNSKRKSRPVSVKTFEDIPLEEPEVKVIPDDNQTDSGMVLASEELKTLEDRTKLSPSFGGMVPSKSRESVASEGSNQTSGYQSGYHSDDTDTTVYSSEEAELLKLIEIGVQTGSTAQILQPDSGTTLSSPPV", "assay": "Surface plasmon resonance (Biacore T200) binding of rivoceranib to biotinylated VEGFR2 cytoplasmic domain"}, "VEGFR2 [3]": {"biological_target": "T1, VEGFR2", "assay": "VEGFR2 kinase activity, off-chip mobility shift assay (MSA), dose-response"}, "RET": {"biological_target": "T2, RET (Homo sapiens, UniProt P07949)", "T2 construct": "purchased Carna Biosciences, Inc. (Kobe, Japan)", "T2 sequence (P07949 29-1114)": "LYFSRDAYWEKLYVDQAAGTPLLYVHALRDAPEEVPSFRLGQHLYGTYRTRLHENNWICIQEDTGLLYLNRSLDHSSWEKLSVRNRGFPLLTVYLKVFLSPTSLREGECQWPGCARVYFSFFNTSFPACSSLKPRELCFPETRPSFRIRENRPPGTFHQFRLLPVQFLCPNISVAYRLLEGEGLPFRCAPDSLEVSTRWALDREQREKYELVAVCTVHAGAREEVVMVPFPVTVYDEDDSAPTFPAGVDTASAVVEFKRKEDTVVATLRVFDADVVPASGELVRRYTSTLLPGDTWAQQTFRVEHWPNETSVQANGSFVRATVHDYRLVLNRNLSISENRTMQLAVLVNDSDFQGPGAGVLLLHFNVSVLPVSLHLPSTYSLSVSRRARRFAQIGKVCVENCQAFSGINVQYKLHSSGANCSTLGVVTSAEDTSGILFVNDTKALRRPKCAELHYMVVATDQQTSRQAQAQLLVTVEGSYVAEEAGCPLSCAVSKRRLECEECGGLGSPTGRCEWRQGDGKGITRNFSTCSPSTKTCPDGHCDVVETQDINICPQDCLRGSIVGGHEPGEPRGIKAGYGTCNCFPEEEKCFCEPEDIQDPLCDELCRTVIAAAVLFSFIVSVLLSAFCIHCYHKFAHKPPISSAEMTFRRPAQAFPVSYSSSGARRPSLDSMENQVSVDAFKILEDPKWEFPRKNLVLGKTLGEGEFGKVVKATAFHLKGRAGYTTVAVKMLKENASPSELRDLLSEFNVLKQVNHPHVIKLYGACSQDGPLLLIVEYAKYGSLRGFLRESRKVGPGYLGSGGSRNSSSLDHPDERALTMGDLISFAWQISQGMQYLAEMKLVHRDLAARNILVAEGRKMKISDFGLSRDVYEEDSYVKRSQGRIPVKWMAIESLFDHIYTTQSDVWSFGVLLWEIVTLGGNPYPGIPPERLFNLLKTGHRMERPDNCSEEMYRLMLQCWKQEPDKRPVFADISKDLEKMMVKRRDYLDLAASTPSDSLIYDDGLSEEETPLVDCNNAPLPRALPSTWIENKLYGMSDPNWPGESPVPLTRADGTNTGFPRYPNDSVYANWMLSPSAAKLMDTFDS", "assay": "Kinase panel enzyme activity assay (MSA or IMAP), percent inhibition at fixed concentration", "assay_type": "biochemical", "description": "(§1) Kinase assays were performed to evaluate inhibitor activity on VEGFR2 and other kinases using either mobility shift assays (MSA) or immobilized metal ion affinity particle (IMAP) assays at Carna Biosciences, Inc (Kobe, Japan). The panel of kinases assayed comprises all wild-type kinases available for profiling at Carna Biosciences, Inc. For VEGFR2, the same cytoplasmic domain was used as in the SPR binding assay.\n(§2) Off-chip MSA was performed by preparing a 4 × substrate/ATP/metal solution using kit buffer (20 mM HEPES, 0.01% Triton X-100, 5 mM DTT, pH 7.5), and a 2 × kinase solution was prepared in assay buffer (20 mM HEPES, 0.01% TritonX-100, 1 mM DTT, pH 7.5). […] A 4 × compound solution and the 4 × substrate/ATP/metal solution, and 2 × kinase solution were mixed and incubated in a 384-well microplate at room temperature for 1 or 5 h, dependent on the kinase. Termination Buffer (QuickScout Screening Assist MSA; Carna Biosciences) was added to the well, and the reaction mixture was applied to the LabChip™ system (Perkin Elmer) to separate and quantitate the product and substrate peptide peaks. The kinase reaction was measured using the product ratio calculated from the peak heights of the product (P) and substrate (S) peptides: [P/(P + S)].\n(§3) For the IMAP assays, a 4 × substrate/ATP/metal solution and 2 × kinase solution were prepared using assay buffer (20 mM HEPES, 0.01% Tween 20, 2 mM DTT, pH 7.4). ATP concentrations in the solution were within twofold of the affinity for ATP (KM,ATP) for each individual kinase. Then, the 4 × compound solution, 4 × substrate/ATP/metal solution, and 2 × kinase solution were mixed and incubated in a single well of a polystyrene 384-well black microplate. After incubating for 1 h at room temperature, IMAP-binding reagent (IMAP Screening Express kit; Molecular Devices) was added to the well and incubated for 30 min. The kinase reaction in each well was measured via fluorescence polarization at excitation of 485 nm and emission of 530 nm.\n(§4) IC50 values were calculated by fitting a 4-parameter logistic curve to the percentage inhibition values at the tested concentrations.\n(§5) To compare the selectivity of rivoceranib and the 10 reference inhibitors, we performed either IMAP assays or off-chip MSA to assess the residual kinase activity of a panel of 270 kinases in the presence of 160 nM or 1600 nM rivoceranib or 1000 nM of reference inhibitor. The 270 kinases represent a broad representation of the more than 500 kinases encoded by the human genome."}, "KIT": {"biological_target": "T3, KIT (Homo sapiens, UniProt P10721)", "T3 construct": "purchased Carna Biosciences, Inc. (Kobe, Japan)", "T3 sequence (P10721 26-976)": "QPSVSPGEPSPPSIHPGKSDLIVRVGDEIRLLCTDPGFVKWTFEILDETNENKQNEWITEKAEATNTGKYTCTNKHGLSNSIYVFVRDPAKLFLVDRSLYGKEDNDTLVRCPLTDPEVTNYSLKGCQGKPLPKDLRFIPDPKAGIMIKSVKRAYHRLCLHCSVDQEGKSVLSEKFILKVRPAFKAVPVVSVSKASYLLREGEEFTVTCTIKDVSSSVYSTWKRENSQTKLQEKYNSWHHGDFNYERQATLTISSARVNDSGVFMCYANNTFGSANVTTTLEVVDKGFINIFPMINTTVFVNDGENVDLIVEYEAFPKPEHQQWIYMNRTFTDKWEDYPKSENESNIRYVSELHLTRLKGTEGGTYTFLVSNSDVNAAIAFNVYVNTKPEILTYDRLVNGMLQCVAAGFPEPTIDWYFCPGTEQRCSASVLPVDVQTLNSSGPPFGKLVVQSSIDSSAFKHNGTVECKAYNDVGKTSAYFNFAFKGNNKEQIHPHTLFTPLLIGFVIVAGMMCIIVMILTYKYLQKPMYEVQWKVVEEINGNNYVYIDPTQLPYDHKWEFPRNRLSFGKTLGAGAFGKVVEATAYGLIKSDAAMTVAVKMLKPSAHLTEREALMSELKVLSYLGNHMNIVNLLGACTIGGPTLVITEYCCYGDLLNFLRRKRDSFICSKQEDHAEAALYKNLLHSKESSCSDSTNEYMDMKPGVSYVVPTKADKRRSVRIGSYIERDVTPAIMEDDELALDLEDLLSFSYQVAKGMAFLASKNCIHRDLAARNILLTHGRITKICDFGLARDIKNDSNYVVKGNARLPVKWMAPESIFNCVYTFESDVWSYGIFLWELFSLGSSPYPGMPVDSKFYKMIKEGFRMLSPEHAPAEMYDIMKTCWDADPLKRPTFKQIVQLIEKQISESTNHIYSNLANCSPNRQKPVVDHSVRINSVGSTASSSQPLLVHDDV", "assay": "Kinase panel enzyme activity assay (MSA or IMAP), percent inhibition at fixed concentration", "assay_type": "biochemical", "description": "as §1, §2, §3, §4, §5"}, "VEGFR3/FLT4": {"biological_target": "T4, VEGFR3/FLT4 (Homo sapiens, UniProt P35916)", "T4 construct": "purchased Carna Biosciences, Inc. (Kobe, Japan)", "T4 sequence (P35916 25-1363)": "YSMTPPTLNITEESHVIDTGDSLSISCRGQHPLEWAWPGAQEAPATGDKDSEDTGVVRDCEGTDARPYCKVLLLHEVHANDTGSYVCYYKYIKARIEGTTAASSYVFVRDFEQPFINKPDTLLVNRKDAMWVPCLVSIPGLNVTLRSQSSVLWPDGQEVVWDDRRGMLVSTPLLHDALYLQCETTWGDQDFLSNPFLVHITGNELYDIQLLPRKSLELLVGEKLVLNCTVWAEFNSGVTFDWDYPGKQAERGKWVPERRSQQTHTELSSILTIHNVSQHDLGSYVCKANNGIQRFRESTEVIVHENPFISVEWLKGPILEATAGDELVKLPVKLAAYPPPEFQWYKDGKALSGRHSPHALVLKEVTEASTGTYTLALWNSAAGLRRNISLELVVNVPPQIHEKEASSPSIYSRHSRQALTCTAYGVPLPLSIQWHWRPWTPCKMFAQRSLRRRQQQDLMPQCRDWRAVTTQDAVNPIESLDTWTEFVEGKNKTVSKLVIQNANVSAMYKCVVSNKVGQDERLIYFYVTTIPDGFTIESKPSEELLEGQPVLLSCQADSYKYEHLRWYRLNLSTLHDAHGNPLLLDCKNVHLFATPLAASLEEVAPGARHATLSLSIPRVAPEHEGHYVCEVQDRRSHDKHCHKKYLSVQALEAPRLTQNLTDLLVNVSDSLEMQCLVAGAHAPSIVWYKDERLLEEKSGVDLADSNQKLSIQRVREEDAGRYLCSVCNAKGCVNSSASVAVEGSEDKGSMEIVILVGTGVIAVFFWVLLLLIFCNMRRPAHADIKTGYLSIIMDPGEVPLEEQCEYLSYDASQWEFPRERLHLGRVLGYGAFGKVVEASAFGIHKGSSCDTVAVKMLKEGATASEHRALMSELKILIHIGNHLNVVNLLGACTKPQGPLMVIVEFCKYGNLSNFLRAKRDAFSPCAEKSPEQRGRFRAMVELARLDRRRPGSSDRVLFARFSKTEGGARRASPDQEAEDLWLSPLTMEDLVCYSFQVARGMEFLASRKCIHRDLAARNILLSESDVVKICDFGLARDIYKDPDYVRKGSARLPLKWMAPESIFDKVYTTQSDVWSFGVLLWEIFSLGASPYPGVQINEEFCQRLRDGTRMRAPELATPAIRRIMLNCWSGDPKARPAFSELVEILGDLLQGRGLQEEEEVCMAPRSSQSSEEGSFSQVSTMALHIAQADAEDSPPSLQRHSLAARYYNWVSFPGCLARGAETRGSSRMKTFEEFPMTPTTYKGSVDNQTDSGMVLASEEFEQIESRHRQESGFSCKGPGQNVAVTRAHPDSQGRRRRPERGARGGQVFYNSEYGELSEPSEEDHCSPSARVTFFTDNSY", "assay": "Kinase panel enzyme activity assay (MSA or IMAP), percent inhibition at fixed concentration", "assay_type": "biochemical", "description": "as §1, §2, §3, §4, §5"}, "PDGFRβ": {"biological_target": "T5, PDGFRβ (Homo sapiens, UniProt P09619)", "T5 construct": "purchased Carna Biosciences, Inc. (Kobe, Japan)", "T5 sequence (P09619 33-1106)": "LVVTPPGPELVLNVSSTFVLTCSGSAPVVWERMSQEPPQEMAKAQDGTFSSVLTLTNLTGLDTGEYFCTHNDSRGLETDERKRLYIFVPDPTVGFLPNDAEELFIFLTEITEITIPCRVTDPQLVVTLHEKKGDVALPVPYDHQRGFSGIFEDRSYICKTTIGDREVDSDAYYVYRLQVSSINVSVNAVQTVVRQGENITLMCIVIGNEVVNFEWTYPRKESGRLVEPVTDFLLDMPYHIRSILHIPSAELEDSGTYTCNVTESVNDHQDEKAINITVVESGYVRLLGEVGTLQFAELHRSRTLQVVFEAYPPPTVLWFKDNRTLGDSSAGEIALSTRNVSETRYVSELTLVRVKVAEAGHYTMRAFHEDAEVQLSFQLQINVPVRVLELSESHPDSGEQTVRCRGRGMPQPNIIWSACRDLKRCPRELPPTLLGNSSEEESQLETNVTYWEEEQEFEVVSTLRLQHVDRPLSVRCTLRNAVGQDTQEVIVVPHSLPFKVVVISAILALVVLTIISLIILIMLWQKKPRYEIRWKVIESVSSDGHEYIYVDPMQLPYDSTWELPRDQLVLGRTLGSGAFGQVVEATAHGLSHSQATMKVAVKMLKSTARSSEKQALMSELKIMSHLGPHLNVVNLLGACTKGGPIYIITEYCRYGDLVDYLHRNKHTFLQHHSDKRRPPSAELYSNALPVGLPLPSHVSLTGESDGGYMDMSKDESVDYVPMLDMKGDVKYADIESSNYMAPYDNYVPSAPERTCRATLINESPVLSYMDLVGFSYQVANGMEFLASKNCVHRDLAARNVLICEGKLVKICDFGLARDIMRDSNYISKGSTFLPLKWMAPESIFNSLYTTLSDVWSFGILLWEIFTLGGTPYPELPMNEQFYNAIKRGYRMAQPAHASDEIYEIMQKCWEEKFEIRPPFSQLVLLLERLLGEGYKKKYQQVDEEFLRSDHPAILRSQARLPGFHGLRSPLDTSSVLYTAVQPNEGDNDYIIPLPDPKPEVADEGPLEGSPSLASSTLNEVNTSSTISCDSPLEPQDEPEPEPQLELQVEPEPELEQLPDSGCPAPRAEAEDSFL", "assay": "Kinase panel enzyme activity assay (MSA or IMAP), percent inhibition at fixed concentration", "assay_type": "biochemical", "description": "as §1, §2, §3, §4, §5"}, "VEGFR1/FLT1": {"biological_target": "T6, VEGFR1/FLT1 (Homo sapiens, UniProt P17948)", "T6 construct": "purchased Carna Biosciences, Inc. (Kobe, Japan)", "assay": "Kinase panel enzyme activity assay (MSA or IMAP), percent inhibition at fixed concentration", "assay_type": "biochemical", "description": "as §1, §2, §3, §4, §5"}, "VEGFR2/KDR": {"biological_target": "T7, VEGFR2/KDR (Homo sapiens, UniProt P35968)", "T7 construct": "cytoplasmic domain of VEGFR2, encompassing amino acid residue 790 to 1356 (C-terminus); purchased Carna Biosciences, Inc. (Kobe, Japan); host or cells: insect cells", "T7 sequence (P35968 790-1356)": "as the sequence (P35968 790-1356) above", "assay": "Kinase panel enzyme activity assay (MSA or IMAP), percent inhibition at fixed concentration", "assay_type": "biochemical", "description": "as §1, §2, §3, §4, §5"}, "panel of 270 kinases [4]": {"tested_on": "panel of 270 kinases", "assay": "Selectivity across panel of 270 kinases (residual activity radar chart, kinome tree)"}, "panel of 270 kinases [5]": {"tested_on": "panel of 270 kinases", "parameters": "method as in PMID 24651269, PMID 30381447", "conditions": "1000 nM reference inhibitor, compared among all inhibitors profiled; cited from earlier work"}, "[6]": {"conditions": "SPR, individual replicates 1a, 1b, 2a, 2b"}, "[7]": {"conditions": "1000 nM reference inhibitor, panel of 270 kinases"}}, "note": "Values joined by “and” are separate entries in the source; they are usually repeats but may differ in a detail not shown here. Identical values can stand only once. Like-named read-outs stand apart in the source and are kept apart here."}
{"smiles": "CNC(=O)c1cc(Oc2ccc(NC(=O)Nc3ccc(Cl)c(C(F)(F)F)c3)c(F)c2)ccn1", "note": "[regorafenib]", "values": [{"measurement": "IC50", "setting": "VEGFR2 [1]; read-out: Reported IC50 values (VEGFR2), published literature, ref Wilhelm SM et al., Int J Cancer. 2011", "value": 4, "unit": "nM"}]}
{"smiles": "N#CC1(c2ccc(NC(=O)c3cccnc3NCc3ccncc3)cc2)CCCC1", "note": "[rivoceranib]", "values": [{"measurement": "Kd", "setting": "VEGFR2 [2]; KD (binding affinity, KD = kd/ka), SPR, single-cycle kinetics, 22 °C, 1:1 model, based on four replicates", "value": "2.08 nM and 2 nM and ~2 nM"}, {"measurement": "Kd", "setting": "VEGFR2 [2]; KD, SPR, individual replicates 1a, 1b, 2a, 2b", "value": "3.06 nM and 1.84 nM and 1 nM and 3.34 nM"}, {"measurement": "kd", "setting": "VEGFR2 [2]; SPR, geometric average of four replicates", "value": 0.000807, "unit": "s⁻¹"}, {"measurement": "ka", "setting": "VEGFR2 [2]; [6]", "value": "303000 M⁻¹ s⁻¹ and 253000 M⁻¹ s⁻¹ and 445000 M⁻¹ s⁻¹ and 659000 M⁻¹ s⁻¹"}, {"measurement": "kd", "setting": "VEGFR2 [2]; [6]", "value": "0.000775 s⁻¹ and 0.000557 s⁻¹ and 0.000445 s⁻¹ and 0.0022 s⁻¹"}, {"measurement": "kon", "setting": "VEGFR2 [2]; read-out: ka, SPR, geometric average of four replicates", "value": 387000, "unit": "M⁻¹ s⁻¹"}, {"measurement": "IC50", "setting": "VEGFR2 [3]", "value": 16, "unit": "nM"}, {"measurement": "Percent inhibition", "setting": "RET; rivoceranib 160 nM", "value": 71.72, "unit": "%"}, {"measurement": "inhibition at […]", "setting": "RET; rivoceranib 160 nM", "value": 71.7, "unit": "%"}, {"measurement": "Percent inhibition", "setting": "RET; rivoceranib 1600 nM", "value": 97.89, "unit": "%"}, {"measurement": "inhibition at […]", "setting": "RET; rivoceranib 1600 nM", "value": 97.9, "unit": "%"}, {"measurement": "inhibition at […]", "setting": "KIT; rivoceranib 160 nM", "value": 47.3, "unit": "%"}, {"measurement": "Percent inhibition", "setting": "KIT; rivoceranib 1600 nM", "value": 92.58, "unit": "%"}, {"measurement": "inhibition at […]", "setting": "KIT; rivoceranib 1600 nM", "value": 92.6, "unit": "%"}, {"measurement": "inhibition at […]", "setting": "VEGFR3/FLT4; rivoceranib 160 nM", "value": 92.9, "unit": "%"}, {"measurement": "Percent inhibition", "setting": "VEGFR3/FLT4; rivoceranib 1600 nM", "value": 99.33, "unit": "%"}, {"measurement": "inhibition at […]", "setting": "VEGFR3/FLT4; rivoceranib 1600 nM", "value": 99.3, "unit": "%"}, {"measurement": "Percent inhibition", "setting": "PDGFRβ; rivoceranib 160 nM", "value": 62.11, "unit": "%"}, {"measurement": "inhibition at […]", "setting": "PDGFRβ; rivoceranib 160 nM", "value": 62.1, "unit": "%"}, {"measurement": "inhibition at […]", "setting": "PDGFRβ; rivoceranib 1600 nM", "value": 94.8, "unit": "%"}, {"measurement": "Percent inhibition", "setting": "VEGFR1/FLT1; rivoceranib 160 nM", "value": 93.27, "unit": "%"}, {"measurement": "inhibition at […]", "setting": "VEGFR1/FLT1; rivoceranib 160 nM", "value": 93.3, "unit": "%"}, {"measurement": "Percent inhibition", "setting": "VEGFR1/FLT1; rivoceranib 1600 nM", "value": 99.53, "unit": "%"}, {"measurement": "inhibition at […]", "setting": "VEGFR1/FLT1; rivoceranib 1600 nM", "value": 99.5, "unit": "%"}, {"measurement": "Percent inhibition", "setting": "VEGFR2/KDR; rivoceranib 160 nM", "value": 96.12, "unit": "%"}, {"measurement": "inhibition at […]", "setting": "VEGFR2/KDR; rivoceranib 160 nM", "value": 96.1, "unit": "%"}, {"measurement": "Percent inhibition", "setting": "VEGFR2/KDR; rivoceranib 1600 nM", "value": 100.79, "unit": "%"}, {"measurement": "inhibition at […]", "setting": "VEGFR2/KDR; rivoceranib 1600 nM", "value": 101, "unit": "%"}, {"measurement": "IC50", "setting": "VEGFR2 [1]; read-out: IC50 for VEGFR2 kinase inhibition in a previous study, ATP 10 µM", "value": 1, "unit": "nM"}, {"measurement": "Overall residual kinase activity across the panel of kinases", "setting": "panel of 270 kinases [4]; 160 nM and 1600 nM rivoceranib, compared among all inhibitors profiled", "value": "the greatest residual kinase activity"}]}
{"smiles": "CCN(CC)CCNC(=O)c1c(C)[nH]c(/C=C2\\C(=O)Nc3ccc(F)cc32)c1C", "note": "[sunitinib]", "values": [{"measurement": "Overall residual kinase activity across the panel of kinases", "setting": "panel of 270 kinases [5]", "value": "the least residual kinase activity"}, {"measurement": "Number of additional kinases beyond VEGFR2 inhibited by > 50%", "setting": "panel of 270 kinases [4]; [7]", "value": 125}]}
{"smiles": "COc1cc2nccc(Oc3ccc(NC(=O)Nc4cc(C)on4)c(Cl)c3)c2cc1OC", "note": "[tivozanib]", "values": [{"measurement": "Number of additional kinases beyond VEGFR2 inhibited by > 50%", "setting": "panel of 270 kinases [4]; [7]", "value": "more than 70"}]}
{"smiles": "COc1cc2nccc(Oc3ccc(NC(=O)NC4CC4)c(Cl)c3)c2cc1C(N)=O", "note": "[lenvatinib]", "values": [{"measurement": "IC50", "setting": "VEGFR2 [1]; read-out: Reported IC50 values (VEGFR2), published literature, ref Brody T., 2018", "value": 4, "unit": "nM"}, {"measurement": "Number of kinases inhibited by 50% or more", "setting": "panel of 270 kinases [4]; [7]", "value": 31}]}
